# Where two headings read alike, the source gives them in different places.
# Columns and labels:
# [1] = system: Acinetobacter spp.; assay: Colistin MIC of BAL isolates (Micronaut AST BMD, VITEK 2 AST-N397, EUCAST v11.0); type: cell-based; conditions: BAL Acinetobacter spp. isolates of 20 patients; median [interquartile range]
# Experimental: Bacterial isolates were identified by using matrix-assisted laser desorption ionization-time of flight mass spectrometry (MALDI-TOF MS). MICs were determined by a Micronaut AST system-based BMD, VITEK 2 AST-N397 card, according to the manufacturer’s instructions. EUCAST (version 11.0, 2021) clinical breakpoints were used to interpret MICs. In pneumonia episodes, microbiological evidence of bacterial infection was achieved by processing respiratory samples both for conventional and fast-microbiology panel testing. […] Semiquantitative culture results were obtained using calibrated loops to inoculate and streak samples on both selective/differential.
# [2] = plasmatic absorption after aerosolization of either 3 MIU and 5 MIU CMS; cited from earlier work
# Text: In our study, all patients underwent CVVHDF with a similar daily dose and since this technique uses diffusion across a concentration gradient (e.g. hemodialysis) in addition to hemofiltration across a pressure gradient, the equivalences of the two modes with respect to CMS/colistin clearance are unknown. Additionally none of our patients had residual renal function and almost all were also receiving high dose nebulized CMS (5 MIU q8), delivered through vibrating mesh nebulizers, potentially contributing to the higher than expected steady-state colistin levels. In our study we cannot asc ...
# [3] = Colistin plasma pharmacokinetics at steady state in critically ill patients undergoing CRRT (CVVHDF); type: in vivo, human; conditions: median [IQR]
# Experimental: According to current guidelines, CMS high dosage (HD) was administered intravenously (IV) at loading dose (LD) of 9 MIU […] over 30-min, followed by 6.75 MIU over 30-min q12. On day 4, at steady state, pharmacokinetic analyses of the study group were performed. CRRT was delivered as continuous veno-venous hemodiafiltration (CVVHDF) with Prismaflex ST150 (Gambro AB, Lund, Sweden) using the AN69 ST membrane (acrylonitrile-sodium-methyl sulfonate surface treated; surface area, 1.5m2) and regional citrate anticoagulation. Dose intensity was prescribed according to current guidelines, and with a ratio of dialysate to replacement fluid of 1:1. The CRRT circuit and membrane were changed every 72 h, as standard operating procedure in our center.
# Although colistin concentration-time profiles are stable just on day 3, blood samples were collected after the seventh dose (on day 4 of treatment) at T0 (immediately before the initiation of CMS infusion) and 1 h, 2 h, 4 h, 6 h, 8 h, 10 h and 12 h from the start of CMS infusion. First order kinetic determined pharmacokinetic parameters; maximum and minimum concentrations (Cmax, Cmin) were directly obtained from observed peak and trough concentrations. The 0–12 h area under the time–concentration curve (AUC0–12 ) was determined by the linear trapezoidal rule. Colistin AUC0–24 was calculated as AUC0–12 × 2. The average steady-state plasma concentration (Css, avg) was obtained from the ratio of colistin AUC 0–24 above T (i.e. the dosage interval). In all patients, distribution volume (Vd), drug clearance (CL), and elimination half-life (t1/2 ) were calculated after a single 6.75 MIU intravenous dose at steady state. According to current guidelines, the recommended PK/PD therapeutic target has been considered the area under the plasma concentration- time curve across 24 h at steady state above MIC (fAUCss 0−24 hr) of ~ […], that equates to a target Css, avgof ~ 2 mg/L of the total drug against susceptible strains (MIC ≤ 2 mcg/mL). […] Colistin and CMS concentration were measured using and modifying the Gobin assay.
# [4] = cited from earlier work
# Experimental: Several variables may influence colistin plasma concentration as demographic (e.g. body mass), clinical (e.g. kidney function) and therapeutic (e.g. RRT modality, membrane, mode and dose) variables. In order to account for CRRT removal of colistin, the 2019 international guidelines for the optimal use of polymyxins recommend administering a daily dose of 440 colistin base activity (CBA), corresponding to ≈ 13,3 MIU or ≈ 1173 mg of CMS in patients who are exposed to this extracorporeal organ support. […] The authors, documenting a 62% ClCVVHDF, formulated a pharmacokinetic model where a LD of 12 MIU followed by a maintenance dosage of 6.75–7.5 MIU q12 would be needed to achieve a target Css, avg of 2–3 mcg/mL [31]. […] Further, in the latest and largest investigation on this topic, ten critically ill patients requiring CRRT and receiving CMS 3 MIU q8 were prospectively studied.
# [5] = in vivo, iv
# Experimental: Clinical and demographic data were recorded upon enrolment. […] Renal recovery was defined as a reduction in peak AKI-KDIGO stage [21] and was evaluated in patients without chronic kidney disease.
# [6] = system: CR-Acinetobacter baumannii ventilator associated pneumonia (VAP); assay: Clinical outcome of patients treated with high-dose intravenous colistimethate; type: in vivo, human; conditions: 20 patients, IV CMS 9 MIU LD then 6.75 MIU q12 in combination therapy, no control group
# [7] = colistin, 20 patients on CVVHDF (AN69 ST membrane), steady state
# [8] = eight critically ill patients receiving CRRT, CMS 4.5 MIU q12
# [9] = five patients on CRRT, CMS until 2 MIU q8
# [10] = ten critically ill patients requiring CRRT, CMS 3 MIU q8
compound,measurement,setting,value
"CC[C@H](C)CCCCC(=O)N[C@@H](CCN)C(=O)N[C@H](C(=O)N[C@@H](CCN)C(=O)N[C@H]1CCNC(=O)[C@H]([C@@H](C)O)NC(=O)[C@H](CCN)NC(=O)[C@H](CCN)NC(=O)[C@H](CC(C)C)NC(=O)[C@@H](CC(C)C)NC(=O)[C@H](CCN)NC1=O)[C@@H](C)O (mixture of isomers) [Colistin, Colistin (polymixin E)]",MIC,[1],1[1-1.5] mcg/mL
same,colistin concentrations after aerosolization,[2],< 1 µg/mL
same,%E (% filter extraction),[3]; [7],17.65 [14.98–21.67] %
same,CLCRRT,[3]; [7],1.21 [0.88–1.35] L/h
same,Vd,"[3]; human, plasma, colistin, 20 patients on CVVHDF, after a single 6.75 MIU IV CMS dose at steady state",126 L
same,half-life,"[3]; human, plasma, colistin, 20 patients on CVVHDF, after a single 6.75 MIU IV CMS dose at steady state, one-compartment, first order",20.9 h
same,clearance,"[3]; human, plasma, colistin, 20 patients on CVVHDF, after the seventh 6.75 MIU IV CMS dose at steady state, read-out: CLTOT (converted)",34.7 mL/min
same,Cmax,"[3]; human, plasma colistin, 20 critically ill anuric patients on CVVHDF (AN69 ST, 32.5 mL/kg/h), IV CMS 9 MIU LD then 6.75 MIU q12, after seventh dose (day 4, steady state), observed peak, modified Gobin assay",16600 ng/mL
same,AUC(0-t),"[3]; human, plasma colistin, 20 patients on CVVHDF, IV CMS 6.75 MIU q12 after 9 MIU LD, day 4, AUC0-12 (linear trapezoidal) x 2, read-out: AUC0-24",194 µg·h/mL
same,level at 96 h,"[3]; human, plasma colistin, 20 patients on CVVHDF, IV CMS 9 MIU LD then 6.75 MIU q12, after seventh dose (day 4), observed trough, read-out: Cmin",3930 ng/mL
same,"Css, avg (average steady-state concentration)","[3]; plasma colistin, 20 patients on CVVHDF, IV CMS 9 MIU LD then 6.75 MIU q12, day 4, AUC0-24 over dosage interval",8.07 [7.1–8.69] mcg/mL
same,"Css, avg in patients who recovered renal function","[3]; plasma colistin, subgroup with renal recovery, p = 0.026 vs no renal recovery","7.48 [6.35, 8.05] mcg/mL"
same,"Css, avg in patients that had no renal recovery","[3]; plasma colistin, subgroup without renal recovery, p = 0.026 vs renal recovery","8.31 [7.35, 9.13] mcg/mL"
same,fAUC0-24,"[3]; unbound colistin, unbound fraction derived from literature, 20 patients on CVVHDF, IV CMS 6.75 MIU q12, day 4",58.16 [51.18–62.6] mcg h/mL
same,ClCVVHDF,[4]; [8],62%
same,median Cmax,[4]; [8],1720 ng/mL
same,CLHDF,[4]; [9],above 4 L/h
same,"Css, avg",[4]; [9],≤ 1 µg/mL
same,membrane extraction ratio,[4]; [9],68%
same,steady-state concentrations,"[4]; high CMS daily administration schedules during CRRT, especially with residual renal function and prolonged course",above 10 mcg/mL
same,AUC0-24,[4]; [10],569 [404–741] mcg h/mL
same,CRRT clearance as share of total clearance,[4]; [10],28%
same,"Css, avg",[4]; [10],4.43 [3.01–7.24] mcg/mL
same,effluent clearance share,[4]; three patients on CRRT,about 40%
colistimethate [CMS],Renal Recovery,[5],6 (37.5) count (percentage)
same,Death in ICU,[6]; 18 with nebulized CMS,15 (75) count (percentage)
same,Treatment failure,[6],14 (70) count (percentage)
same,CRRT clearance as share of total clearance,"[4]; human, in vivo",41%
same,median Cmax,"[4]; human, in vivo",12600 ng/mL
same,"risk to overcome the safety limit of Css, avg ≥ 4 mcg/mL","[4]; human, in vivo",less than 30%
same,"target attainment rate (Css, avg ≥ 2 mcg/mL)","[4]; human, in vivo",80%

# Source: paper PMC11438743, “High-dose colistin pharmacokinetics in critically ill patients receiving continuous renal replacement therapy” (Annals of Intensive Care, 2024)
